Reference: patent US7341715B2, “Method and agents on the basis of 2-mercaptopropionic acid amides for durable hair forming and a method for producing same” (Wella AG, priority 2000, dated 2008)

What was measured:
[1] = Comparison of the stabilities of the waves: wave stability (WSN); conditions: waving solution 87 mmoles/100 g reducing agent, standardized to glycerin monothioglycolate solution pH 9 = 100%; for WSN pH = 7: pH 7, 20 minutes at 50° C.; for WSN pH = 8: pH 8, 20 minutes at 50° C.; for WSN pH = 9: pH 9, 20 minutes at 50° C.
Experimental: The waving effectiveness of the 1-mercaptopropionamides was determined using glycerin monothioglycolate as comparison substance with the help of waving solutions at a pH of 7, 8 and 9. For this purpose, pre-bleached and therefore damaged counting hair strands (consisting of about 100 hairs) from Middle European hair was wound wet onto standardized spiral curlers (internal diameter of 3 millimeters) and, after being conditioned in an air-conditioned room (temperature: 20° C., relative humidity: 65%), treated with a solution of the reducing agent, containing 87 mmoles/100 g and adjusted to the respective pH. The amount of waving liquid applied was calculated from the ratio of 1:1.2 (1 g of hair: 1.2 mL of waving liquid). A period of action of 20 minutes at a temperature of 50° C. was selected. Subsequently, the hair was fixed with a peroxide-containing material, removed from the curlers and hung up for 4 hours in water (waterbath temperature: 40° C.).
The wave stability (WSN) is calculated from the following formula:
[formula] • 1o=total length of the not shaped, stretched strands (16.5 cm) • 1t=length of the strands, removed from the curlers and suspended, after 240 minutes • 1l=length of the shaped strands on curlers (for curlers with an internal diameter of 3 mm, 1l=35 mm)
As a standard, strands were treated with a glycerin monothioglycolate solution, the pH of which had been adjusted to a value of 9. The standardized wave stabilities, given below in Table 1, relate to this standard solution (pH=9), the wave stability (WSN) of which has been set at 100%.

[2] = pKa value; format: physicochemical

CC(S)C(=O)N1CCCC(O)C1 (stereo not shown)
WSN pH = 7 [1]: 79%
WSN pH = 8 [1]: 94%
WSN pH = 9 [1]: 89%

CC(S)C(=O)N1CCN(C)CC1 (stereo not shown) [N,N-(4-Methylaza-pentamethylene)-2-mercaptopropionamide]
WSN pH = 7 [1]: 78%
WSN pH = 8 [1]: 86%
WSN pH = 9 [1]: 78%

COCCN(CCOC)C(=O)C(C)S (stereo not shown) [N,N-Bis-(2-methoxyethyl)-2-mercaptopropionamide]
melting point: 85 °C
WSN pH = 7 [1]: 78%
WSN pH = 8 [1]: 93%
WSN pH = 9 [1]: 91%

CCC(CO)NC(=O)C(C)S (stereo not shown) [N-(1-Hydroxymethylpropyl)-2-mercaptopropionamide]
WSN pH = 7 [1]: 73%
WSN pH = 8 [1]: 88%
WSN pH = 9 [1]: 85%

COCC(C)NC(=O)C(C)S (stereo not shown) [N-(1-Methoxy-2-propyl)-2-mercaptopropionamide]
melting point: 60 °C
WSN pH = 7 [1]: 91%
WSN pH = 8 [1]: 95%
WSN pH = 9 [1]: 99%

CC(S)C(=O)NCCN (stereo not shown) [N-(2-Aminoethyl)-2-mercaptopropionamide]
WSN pH = 7 [1]: 61%
WSN pH = 8 [1]: 81%
WSN pH = 9 [1]: 87%

CCN(CC)CCNC(=O)C(C)S (stereo not shown) [N-(2-Diethylaminoethyl)-2-mercaptopropionamide]
melting point: 74 °C
WSN pH = 7 [1]: 71%
WSN pH = 8 [1]: 80%
WSN pH = 9 [1]: 77%

CC(S)C(=O)NCCN(C)C (stereo not shown) [N-(2-Dimethylaminoethyl)-2-mercaptopropionamide]
melting point: 83 °C
WSN pH = 7 [1]: 81%
WSN pH = 8 [1]: 87%
WSN pH = 9 [1]: 83%

CCNCCNC(=O)C(C)S (stereo not shown) [N-(2-Ethylaminoethyl)-2-mercaptopropionamide]
WSN pH = 7 [1]: 57%
WSN pH = 8 [1]: 82%
WSN pH = 9 [1]: 60%

CCC(O)CNC(=O)C(C)S (stereo not shown) [N-(2-Hydroxy-1-butyl)-2-mercaptopropionamide]
WSN pH = 7 [1]: 79%
WSN pH = 8 [1]: 91%
WSN pH = 9 [1]: 94%

CC(S)C(=O)NCCO (stereo not shown) [N-(2-Hydroxyethyl)-2-mercaptopropionamide]
WSN pH = 7 [1]: 84%
WSN pH = 8 [1]: 106%
WSN pH = 9 [1]: 103%

CC(O)CNC(=O)C(C)S (stereo not shown) [N-(2-Hydroxypropyl)-2-mercaptopropionamide]
pKa [2]: 8.37
WSN pH = 7 [1]: 78%
WSN pH = 8 [1]: 94%
WSN pH = 9 [1]: 94%

COCCNC(=O)C(C)S (stereo not shown) [N-(2-Methoxyethy)-2-mercaptopropionamide]
WSN pH = 7 [1]: 87%
WSN pH = 8 [1]: 99%
WSN pH = 9 [1]: 106%

CC(S)C(=O)NCCN1CCOCC1 (stereo not shown) [N-(2-Morpholinoethyl)-2-mercaptopropionamide]
WSN pH = 7 [1]: 85%
WSN pH = 8 [1]: 93%
WSN pH = 9 [1]: 92%

CC(S)C(=O)NCCCN (stereo not shown) [N-(3-Aminopropyl)-2-mercaptopropionamide]
WSN pH = 7 [1]: 67%
WSN pH = 8 [1]: 82%
WSN pH = 9 [1]: 88%

CCN(CC)CCCNC(=O)C(C)S (stereo not shown) [N-(3-Diethylaminopropyl)-2-mercaptopropionamide]
melting point: 65 °C
WSN pH = 7 [1]: 77%
WSN pH = 8 [1]: 73%
WSN pH = 9 [1]: 81%

CC(S)C(=O)NCCCN(C)C (stereo not shown) [N-(3-Dimethylaminopropyl)-2-mercaptopropionamide]
melting point: 84 °C
WSN pH = 7 [1]: 72%
WSN pH = 8 [1]: 83%
WSN pH = 9 [1]: 95%

COCCCNC(=O)C(C)S (stereo not shown) [N-(3-Methoxypropyl)-2-mercaptopropionamide]
melting point: 97 °C
WSN pH = 7 [1]: 79%
WSN pH = 8 [1]: 92%
WSN pH = 9 [1]: 91%

CNCCCNC(=O)C(C)S (stereo not shown) [N-(3-Methylaminopropyl)-2-mercaptopropionamide]
WSN pH = 7 [1]: 55%
WSN pH = 8 [1]: 73%
WSN pH = 9 [1]: 78%

CCN(CCO)C(=O)C(C)S (stereo not shown) [N-Ethyl,N-(2-hydroxyethyl)-2-mercaptopropionamide]
melting point: 95 °C
WSN pH = 7 [1]: 94%
WSN pH = 8 [1]: 83%
WSN pH = 9 [1]: 114%

CC(S)C(=O)N(CCO)C(C)C (stereo not shown) [N-Isopropyl,N-(2-hydroxyethyl)-2-mercaptopropionamide]
melting point: 100 °C
WSN pH = 7 [1]: 65%
WSN pH = 8 [1]: 88%
WSN pH = 9 [1]: 109%

CC(S)C(=O)N(C)CCO (stereo not shown) [N-Methyl,N-(2-hydroxyethyl)-2-mercaptopropionamide]
melting point: 95 °C
WSN pH = 7 [1]: 72%
WSN pH = 8 [1]: 91%
WSN pH = 9 [1]: 91%

CCCN(CCO)C(=O)C(C)S (stereo not shown) [N-Propyl,N-(2-hydroxyethyl)-2-mercaptopropionamide]
melting point: 80 °C
WSN pH = 7 [1]: 77%
WSN pH = 8 [1]: 89%
WSN pH = 9 [1]: 99%

CC(S)C(=O)NCC1CCCO1 (stereo not shown) [N-Tetrahydrofurfuryl-2-mercaptopropionamide]
melting point: 82 °C
WSN pH = 7 [1]: 85%
WSN pH = 8 [1]: 88%
WSN pH = 9 [1]: 94%

Thiolactic acid [reference compound]
WSN pH = 7 [1]: 57%
WSN pH = 8 [1]: 50%
WSN pH = 9 [1]: 70%
